System: D-pantolactone hydrolase purified from Fusarium oxysporum (IFO 5942)
Experiment: Substrate specificity (Km) and inhibition of purified D-pantolactone hydrolase
Format: biochemical
Conditions: for Km: purified enzyme, the compound is the substrate, read-out: Km (Michaelis constant)
Experimental: Fusarium oxysporum (IFO 5942) was inoculated into each of thirty 2l shake flasks each containing 500 ml of culture medium containing 5% sucrose, 0.4% sodium nitrate, 0.2% dipotassium monohydrogenphosphate, 0.05% magnesium sulfate, 0.05% potassium chloride, 0.001% ferric sulfate and 0.002% zinc sulfate (pH 6.0), and subjected to shaking culture at 28° C. for 7 days. The combined culture broths were centrifuged to give 800 g of wet mass of cells. The cells were triturated by means of a DYNO®-MILL with 2.5 l of 0.1 mM dithiothreitol-containing 20 mM Tris-HCl buffer (pH 7.4), and the mixture was centrifuged to give 2.3 l of cell-free extract. […] Furthermore, 572 g of potassium chloride were added to, and dissolved in, this cell-free extract and the mixture was loaded on an Octyl sepharose CL4B column (3×28 cm) and eluted with 3M potassium chloride. 2.4 l of eluted active fractions were dialyzed against 0.1 mM dithiothreitol-containing 20 mM Tris-HCl buffer (pH 7.4). The resultant 2.9 l of enzyme solution were loaded on a DEAE Sephacel column (5.5×34 cm) and eluted with a linear gradient of 0 to 0.5M potassium chloride. 255 ml of eluted active fractions were loaded on a hydroxyapatite column (5×10 cm) and eluted with a linear gradient of 0 to 0.88M potassium phosphate buffer (pH 7.0). 425 ml of eluted active fractions were subjected to ultrafiltration using an Amicon YM 10, and 115 ml of the resultant enzyme concentrate were dialyzed against 0.1 mM dithiothreitol-containing 20 mM Tris-HCl buffer (pH 7.4). 190 ml of the enzyme solution were subjected to ultrafiltration using an Amicon YM 30 and 14.5 ml of the resultant enzyme solution was loaded on a sephacryl S-300 column (2.5×95 cm) and eluted with 0.2M potassium chloride. 44.5 ml of eluted active fractions were dialyzed against 0.1 mM dithiothreitol-containing 20 mM Tris-HCl buffer (pH 7.4), then loaded on a Q sepharose Fast Flow column (1.8×3 cm) and eluted with a linear gradient of 0 to 1M potassium chloride. 7 ml of eluted active fractions were dialyzed against 0.1 mM dithiothreitol-containing 20 mM Tris-HCl buffer (pH 7.4) to obtain 6.8 ml of purified enzyme solution.
In determining enzyme activity, the enzyme activity which hydrolyzes 1 μmol of D-pantolactone in one minute under the conditions specified below was taken as one unit (U).
50 μl of enzyme solution were added to 200 μl of 10% D-pantolactone solution in 0.5M PIPES buffer (pH 7.0). After reaction at 30° C. for 120 minutes, 250 μl of 2 mM EDTA solution in methanol were added to stop the reaction. The resultant reaction mixture was subjected to HPLC (Nucleosil 5C18 4.6×150 mm; eluent 10% methanol; rate of flow 1 ml/min; detection wavelength 230 nm) to determine the % hydrolysis. For example, where the % hydrolysis is 1%, the enzyme activity/ml of enzyme solution corresponds to 1.6×10^-2 U/ml.
Values in parentheses are those for the activity of the respective metal ions at 2.5 mM concentration as measured with the activity value in the case of no addition of metal ions taken as 100.

O=C1O[C@@H]([C@H](O)CO)[C@H](O)[C@H]1O [D-galactonolactone]
Km: 3.6 mM

O=C1O[C@@H]([C@H](O)CO)[C@@H](O)[C@H]1O [D-gulonolactone]
Km: 29 mM

CC1(C)COC(=O)[C@@H]1O [D-pantolactone]
Km: 82 mM

O=C(O)CN(CCN(CC(=O)O)CC(=O)O)CC(=O)O [EDTA, reference compound]
Inhibition of enzyme activity (5 mM EDTA): inhibited completely

O=C1O[C@@H]([C@@H](O)CO)[C@@H](O)[C@H]1O [L-mannonolactone]
Km: 23 mM

Reference: US5372940A, “D-pantolactone hydrolase and process for the preparation thereof” (Fuji Yakuhin Kogyo Kabushiki Kaisha, priority 1990, dated 1994)
